Laboratory results: publication PMC3361763 (2011)

What was measured:
CDK6 = CDK6 (Homo sapiens, UniProt Q00534); test: radiometric kinase assay; type: biochemical
CDK4 = CDK4 (Homo sapiens, UniProt P11802); test: radiometric kinase assay; type: biochemical
Sequence of CDK4 (P11802 2-303): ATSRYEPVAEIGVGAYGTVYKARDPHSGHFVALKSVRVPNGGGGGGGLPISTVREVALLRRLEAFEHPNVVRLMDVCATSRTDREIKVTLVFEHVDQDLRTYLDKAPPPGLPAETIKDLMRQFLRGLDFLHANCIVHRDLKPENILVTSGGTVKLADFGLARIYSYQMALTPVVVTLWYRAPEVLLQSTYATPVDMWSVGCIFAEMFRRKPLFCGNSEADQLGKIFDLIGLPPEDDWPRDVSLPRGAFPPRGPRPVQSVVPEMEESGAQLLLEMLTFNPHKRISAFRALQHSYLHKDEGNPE

Sequence of CDK6 (Q00534 whole entry): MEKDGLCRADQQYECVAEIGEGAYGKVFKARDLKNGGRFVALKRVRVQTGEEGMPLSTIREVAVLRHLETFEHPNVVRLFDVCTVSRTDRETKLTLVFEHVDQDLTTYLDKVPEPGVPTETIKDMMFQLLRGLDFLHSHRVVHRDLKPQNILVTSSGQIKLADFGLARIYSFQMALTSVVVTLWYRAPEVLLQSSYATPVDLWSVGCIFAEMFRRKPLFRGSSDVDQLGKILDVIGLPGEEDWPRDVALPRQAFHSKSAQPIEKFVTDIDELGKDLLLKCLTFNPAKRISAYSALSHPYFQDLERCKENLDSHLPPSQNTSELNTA

## O=C(O)CN(CC(=O)O)Cc1cc2c(cc1O)Oc1cc(O)c(CN(CC(=O)O)CC(=O)O)cc1C21OC(=O)c2ccccc21 [calcein, 4′5′-bis(N, N-bis(carboxymethyl)aminomethyl) fluorescein]
CDK6
  IC50: 75 µM
CDK4
  radiometric kinase assay (GST-Rb substrate) on CDK4 immunoprecipitated from HCT1: ~ 75 μM
